System: MV-4-11 cells
Experiment: Gene expression microarray analysis (Affymetrix PrimeView) and GSEA
Assay type: cell-based, human
Parameters: RFU PODN (11730768_x_at) / Fold change /veh PODN (11730768_x_at) / RFU LINC00158 (11744669_a_at) / Fold change /veh LINC00158 (11744669_a_at) / RFU DUSP10 (11751237_a_at) / Fold change /veh DUSP10 (11751237_a_at) / RFU ID3 (11757404_x_at) / Fold change /veh ID3 (11757404_x_at) / RFU PLEKHG5 (11737974_s_at) / Fold change /veh PLEKHG5 (11737974_s_at) / RFU LRRC4B (11730491_at) / Fold change /veh LRRC4B (11730491_at) / RFU GIMAP4 (11747438_a_at) / Fold change /veh GIMAP4 (11747438_a_at) / RFU KRT8 (11758183_x_at) / Fold change /veh KRT8 (11758183_x_at) / RFU CNN1 (11734310_a_at) / Fold change /veh CNN1 (11734310_a_at) / RFU VPS37D (11726825_at) / Fold change /veh VPS37D (11726825_at) / RFU C10orf10 (11716522_x_at) / Fold change /veh C10orf10 (11716522_x_at) / RFU KIR2DL2 /// KIR2DL4 /// KIR2DL5A /// KIR2DL5B /// KIR2DS1 /// KIR2DS2 /// KIR2DS3 /// KIR2DS4 /// KIR3DL3 /// KIR3DL3 /// KIR3DS1 (11738374_at) / Fold change /veh KIR2DL2 /// KIR2DL4 /// KIR2DL5A /// KIR2DL5B /// KIR2DS1 /// KIR2DS2 /// KIR2DS3 /// KIR2DS4 /// KIR3DL3 /// KIR3DL3 /// KIR3DS1 (11738374_at) / RFU C1QL1 (11718748_at) / Fold change /veh C1QL1 (11718748_at) / RFU TMPRSS4 (11747572_a_at) / Fold change /veh TMPRSS4 (11747572_a_at) / RFU HAMP (11756126_x_at) / Fold change /veh HAMP (11756126_x_at) / RFU RNFT2 (11725882_a_at) / Fold change /veh RNFT2 (11725882_a_at) / RFU NR4A2 (11747474_a_at) / Fold change /veh NR4A2 (11747474_a_at) / RFU ABCC12 (11746883_a_at) / Fold change /veh ABCC12 (11746883_a_at) / RFU TMEM136 (11760407_x_at) / Fold change /veh TMEM136 (11760407_x_at) / RFU CLDN22 /// WWC2 (11732394_at) / Fold change /veh CLDN22 /// WWC2 (11732394_at) / RFU HLA-DPB1 (11760878_x_at) / Fold change /veh HLA-DPB1 (11760878_x_at) / RFU SPINT1 (11716480_a_at) / Fold change /veh SPINT1 (11716480_a_at) / RFU GAP43 (11754022_s_at) / Fold change /veh GAP43 (11754022_s_at) / RFU A4GNT (11735810_at) / Fold change /veh A4GNT (11735810_at) / RFU PRB3 (11715151_x_at) / Fold change /veh PRB3 (11715151_x_at) / RFU TUBB4B (11761932_at) / Fold change /veh TUBB4B (11761932_at) / RFU CAPN14 (11732068_a_at) / Fold change /veh CAPN14 (11732068_a_at) / RFU TMCC2 (11721928_a_at) / Fold change /veh TMCC2 (11721928_a_at) / RFU IRGQ (11745062_a_at) / Fold change /veh IRGQ (11745062_a_at) / RFU FAM174B (11720279_a_at) / Fold change /veh FAM174B (11720279_a_at) / RFU TMPRSS4 (11748680_a_at) / Fold change /veh TMPRSS4 (11748680_a_at) / RFU FAM212B (11763350_a_at) / Fold change /veh FAM212B (11763350_a_at) / RFU PLEKHG5 (11743358_a_at) / Fold change /veh PLEKHG5 (11743358_a_at) / RFU ZSCAN30 (11745921_a_at) / Fold change /veh ZSCAN30 (11745921_a_at) / RFU CMKLR1 (11741424_a_at) / Fold change /veh CMKLR1 (11741424_a_at) / RFU LOC101060620 /// MAPK8IP1 (11723275_at) / Fold change /veh LOC101060620 /// MAPK8IP1 (11723275_at) / RFU SPTSSB (11747773_x_at) / Fold change /veh SPTSSB (11747773_x_at) / RFU PRSS12 (11739890_at) / Fold change /veh PRSS12 (11739890_at) / RFU BIN1 (11741810_x_at) / Fold change /veh BIN1 (11741810_x_at) / RFU WNT11 (11732464_a_at) / Fold change /veh WNT11 (11732464_a_at) / RFU C10orf10 (11716521_a_at) / Fold change /veh C10orf10 (11716521_a_at) / RFU C5orf56 (11738089_at) / Fold change /veh C5orf56 (11738089_at) / RFU CYB561 (11721691_x_at) / Fold change /veh CYB561 (11721691_x_at) / RFU ANKRD19P (11752326_a_at) / Fold change /veh ANKRD19P (11752326_a_at) / RFU OR2T12 /// OR2T33 /// OR2T8 (11738714_s_at) / Fold change /veh OR2T12 /// OR2T33 /// OR2T8 (11738714_s_at) / RFU VCAN (11748164_a_at) / Fold change /veh VCAN (11748164_a_at) / RFU JSRP1 (11732532_at) / Fold change /veh JSRP1 (11732532_at) / RFU KRTAP10-11 (11738290_x_at) / Fold change /veh KRTAP10-11 (11738290_x_at) / RFU MYO3A (11730013_a_at) / Fold change /veh MYO3A (11730013_a_at) / RFU EBF3 (11725865_a_at) / Fold change /veh EBF3 (11725865_a_at) / RFU CAMK2N1 (11719241_x_at) / Fold change /veh CAMK2N1 (11719241_x_at) / RFU C5orf56 (11738088_a_at) / Fold change /veh C5orf56 (11738088_a_at) / RFU OLFML3 (11715873_a_at) / Fold change /veh OLFML3 (11715873_a_at) / RFU LOC100653217 /// NTM (11731650_a_at) / Fold change /veh LOC100653217 /// NTM (11731650_a_at) / RFU MAPK11 (11762145_a_at) / Fold change /veh MAPK11 (11762145_a_at) / RFU FIZ1 (11724087_x_at) / Fold change /veh FIZ1 (11724087_x_at) / RFU OASL (11726364_x_at) / Fold change /veh OASL (11726364_x_at) / RFU SOX15 (11748057_x_at) / Fold change /veh SOX15 (11748057_x_at) / RFU CD79A (11719716_a_at) / Fold change /veh CD79A (11719716_a_at) / RFU HIST1H1D (11736915_at) / Fold change /veh HIST1H1D (11736915_at) / RFU CASKIN2 (11723855_a_at) / Fold change /veh CASKIN2 (11723855_a_at) / RFU LOC730098 (11760151_x_at) / Fold change /veh LOC730098 (11760151_x_at) / RFU OR4N2 (11742367_at) / Fold change /veh OR4N2 (11742367_at) / RFU PRRT2 (11749266_a_at) / Fold change /veh PRRT2 (11749266_a_at) / RFU SNX32 (11753110_a_at) / Fold change /veh SNX32 (11753110_a_at) / RFU CDHR5 (11726645_a_at) / Fold change /veh CDHR5 (11726645_a_at) / RFU RCAN1 (11760418_a_at) / Fold change /veh RCAN1 (11760418_a_at) / RFU FAM167A (11723789_a_at) / Fold change /veh FAM167A (11723789_a_at) / RFU FAM26E (11764081_at) / Fold change /veh FAM26E (11764081_at) / RFU ISYNA1 (11749810_s_at) / Fold change /veh ISYNA1 (11749810_s_at) / RFU ACY1 (11761880_at) / Fold change /veh ACY1 (11761880_at) / RFU 11764098_at / Fold change /veh 11764098_at / RFU SAMD14 (11745864_x_at) / Fold change /veh SAMD14 (11745864_x_at) / RFU NPB (11741838_a_at) / Fold change /veh NPB (11741838_a_at) / RFU TMPRSS6 (11731388_a_at) / Fold change /veh TMPRSS6 (11731388_a_at) / RFU KRTAP10-2 (11738614_at) / Fold change /veh KRTAP10-2 (11738614_at) / RFU ARHGAP8 /// PRR5-ARHGAP8 (11727945_x_at) / Fold change /veh ARHGAP8 /// PRR5-ARHGAP8 (11727945_x_at) / RFU KRTAP5-7 /// NADSYN1 (11734609_at) / Fold change /veh KRTAP5-7 /// NADSYN1 (11734609_at) / RFU RASL12 (11751679_a_at) / Fold change /veh RASL12 (11751679_a_at) / RFU CDKN2B (11736163_a_at) / Fold change /veh CDKN2B (11736163_a_at) / RFU PRF1 (11729649_at) / Fold change /veh PRF1 (11729649_at) / RFU, ZNF638 /// ZNF638-IT1 / Fold change vs veh, ZNF638 /// ZNF638-IT1 / RFU, PANK3 / Fold change vs veh, PANK3 / RFU, SH3YL1 / Fold change vs veh, SH3YL1 / RFU, ZEB2 / Fold change vs veh, ZEB2 / RFU, NRIP1 / Fold change vs veh, NRIP1 / RFU, PTTG1IP / Fold change vs veh, PTTG1IP / RFU, CAPN2 / Fold change vs veh, CAPN2 / RFU, MED14 / Fold change vs veh, MED14 / RFU, SNORA58 / Fold change vs veh, SNORA58 / RFU, C1orf63 / Fold change vs veh, C1orf63 / RFU, LRRFIP1 / Fold change vs veh, LRRFIP1 / RFU, NDUFAF7 / Fold change vs veh, NDUFAF7 / RFU, SLC12A2 / Fold change vs veh, SLC12A2 / RFU, IBTK / Fold change vs veh, IBTK / RFU, ESF1 / Fold change vs veh, ESF1 / Fold change vs veh, TMEM50B / RFU, TAOK1 / Fold change vs veh, TAOK1 / RFU, ACBD3 / Fold change vs veh, ACBD3 / RFU, TMA16 / Fold change vs veh, TMA16 / RFU, RWDD3 / Fold change vs veh, RWDD3 / RFU, BCAT1 / Fold change vs veh, BCAT1 / RFU, EDEM3 / Fold change vs veh, EDEM3 / RFU, TMEM33 / Fold change vs veh, TMEM33 / RFU, WDR75 / Fold change vs veh, WDR75 / RFU, AHCTF1 / Fold change vs veh, AHCTF1 / RFU, TFRC / Fold change vs veh, TFRC / RFU, ZDHHC17 / Fold change vs veh, ZDHHC17 / RFU, NOM1 / Fold change vs veh, NOM1 / RFU, ARL8B / Fold change vs veh, ARL8B / RFU, ZBTB11 / Fold change vs veh, ZBTB11 / RFU, TAMM41 / Fold change vs veh, TAMM41 / RFU, KIAA1704 /// LOC100996395 / Fold change vs veh, KIAA1704 /// LOC100996395 / RFU, ING1 / Fold change vs veh, ING1 / RFU, TRMT61B / Fold change vs veh, TRMT61B / RFU, FUBP3 / Fold change vs veh, FUBP3 / RFU, TP53 / Fold change vs veh, TP53 / RFU, TNKS2 / Fold change vs veh, TNKS2 / RFU, ZFP14 / Fold change vs veh, ZFP14 / RFU, ACTR2 / Fold change vs veh, ACTR2 / RFU, PPP3R1 / Fold change vs veh, PPP3R1 / RFU, PIK3R1 / Fold change vs veh, PIK3R1 / RFU, HNRNPA1 / Fold change vs veh, HNRNPA1 / RFU, RNF170 / Fold change vs veh, RNF170 / RFU, ZNF28 / Fold change vs veh, ZNF28 / RFU, RNGTT / Fold change vs veh, RNGTT / RFU, OGT / Fold change vs veh, OGT / RFU, BRD1 / Fold change vs veh, BRD1 / RFU, MARS / Fold change vs veh, MARS / RFU, ZNF655 / Fold change vs veh, ZNF655 / RFU, FAHD1 / Fold change vs veh, FAHD1 / RFU, BDP1 / Fold change vs veh, BDP1 / RFU, LRRCC1 / Fold change vs veh, LRRCC1 / RFU, ARID1A / Fold change vs veh, ARID1A / RFU, ZNF146 / Fold change vs veh, ZNF146 / RFU, ZNF330 / Fold change vs veh, ZNF330 / RFU, GPN3 / Fold change vs veh, GPN3 / RFU, C9orf123 / Fold change vs veh, C9orf123 / RFU, N4BP2L2 / Fold change vs veh, N4BP2L2 / RFU, ARFIP1 / Fold change vs veh, ARFIP1 / RFU, FAM179B / Fold change vs veh, FAM179B / RFU, BCL10 / Fold change vs veh, BCL10 / RFU, UHRF1BP1L / Fold change vs veh, UHRF1BP1L / RFU, BET1 / Fold change vs veh, BET1 / RFU, CNOT2 / Fold change vs veh, CNOT2 / RFU, ZNF268 / Fold change vs veh, ZNF268 / Fold change vs veh, ZNF507 / RFU, DGCR2 / Fold change vs veh, DGCR2 / RFU, WDSUB1 / Fold change vs veh, WDSUB1 / Fold change vs veh, HSP90B1 /// MIR3652 / RFU, ADSS / Fold change vs veh, ADSS / RFU, GK / Fold change vs veh, GK / RFU, ZNF148 / Fold change vs veh, ZNF148 / RFU, TAF9 / Fold change vs veh, TAF9 / RFU, SLC1A5 / Fold change vs veh, SLC1A5 / RFU, SLMO2 / Fold change vs veh, SLMO2 / RFU, ABCC4 / Fold change vs veh, ABCC4 / RFU, LOC101060439 /// RAP1B / Fold change vs veh, LOC101060439 /// RAP1B / RFU, RFX7 / Fold change vs veh, RFX7 / RFU, GTPBP10 / Fold change vs veh, GTPBP10 / RFU, CNEP1R1 / Fold change vs veh, CNEP1R1 / RFU, BIVM-ERCC5 /// ERCC5 / Fold change vs veh, BIVM-ERCC5 /// ERCC5 / RFU, ILF3 / Fold change vs veh, ILF3 / RFU 11762660_at / Fold change /veh 11762660_at / RFU VCAN (11757783_s_at) / Fold change /veh VCAN (11757783_s_at) / RFU DDX43 (11728927_at) / Fold change /veh DDX43 (11728927_at) / RFU KRT8 (11758188_x_at) / Fold change /veh KRT8 (11758188_x_at) / RFU NKD1 (11759106_at) / Fold change /veh NKD1 (11759106_at) / RFU SRD5A1 (11742802_a_at) / Fold change /veh SRD5A1 (11742802_a_at) / RFU TPSAB1 /// TPSB2 (11721975_s_at) / Fold change /veh TPSAB1 /// TPSB2 (11721975_s_at) / RFU GSTM3 (11746129_a_at) / Fold change /veh GSTM3 (11746129_a_at) / RFU IL23R (11737362_x_at) / Fold change /veh IL23R (11737362_x_at) / RFU TMEM51 (11727254_a_at) / Fold change /veh TMEM51 (11727254_a_at) / RFU PIWIL2 (11732686_x_at) / Fold change /veh PIWIL2 (11732686_x_at) / RFU ORM1 (11744905_x_at) / Fold change /veh ORM1 (11744905_x_at) / RFU CCDC152 (11743942_at) / Fold change /veh CCDC152 (11743942_at) / RFU ECM1 (11717891_a_at) / Fold change /veh ECM1 (11717891_a_at) / RFU IL23R (11748794_a_at) / Fold change /veh IL23R (11748794_a_at) / RFU TNFAIP8L3 (11732012_x_at) / Fold change /veh TNFAIP8L3 (11732012_x_at) / RFU MBOAT4 (11741988_at) / Fold change /veh MBOAT4 (11741988_at) / RFU 11764193_at / Fold change /veh 11764193_at / RFU TMEM53 (11763286_at) / Fold change /veh TMEM53 (11763286_at) / RFU MAGEB2 (11727129_at) / Fold change /veh MAGEB2 (11727129_at) / RFU TMEM200A (11744735_a_at) / Fold change /veh TMEM200A (11744735_a_at) / RFU CCDC152 (11751479_a_at) / Fold change /veh CCDC152 (11751479_a_at) / RFU FAM211A (11726209_a_at) / Fold change /veh FAM211A (11726209_a_at) / RFU RGS16 (11746705_a_at) / Fold change /veh RGS16 (11746705_a_at) / RFU VCAN (11755009_s_at) / Fold change /veh VCAN (11755009_s_at) / RFU RHOB (11743442_s_at) / Fold change /veh RHOB (11743442_s_at) / RFU RGS16 (11720943_a_at) / Fold change /veh RGS16 (11720943_a_at) / RFU RGS16 (11720944_at) / Fold change /veh RGS16 (11720944_at) / RFU, VPS4B / Fold change vs veh, VPS4B / RFU, CREB1 / Fold change vs veh, CREB1 / RFU, DNAJC13 / Fold change vs veh, DNAJC13 / RFU, GNAQ / Fold change vs veh, GNAQ / RFU, CDK5R1 / Fold change vs veh, CDK5R1 / RFU, ZRANB3 / Fold change vs veh, ZRANB3 / RFU, CUL4A / Fold change vs veh, CUL4A / RFU, CCNY / Fold change vs veh, CCNY / RFU, UFL1 / Fold change vs veh, UFL1 / RFU, COG3 / Fold change vs veh, COG3 / RFU, DIAPH2 / Fold change vs veh, DIAPH2 / RFU, SKA2 / Fold change vs veh, SKA2 / RFU, AFF3 / Fold change vs veh, AFF3 / RFU, LMF1 / Fold change vs veh, LMF1 / RFU, IPO11 / Fold change vs veh, IPO11 / RFU, DFFB / Fold change vs veh, DFFB / RFU, FOXP1 / Fold change vs veh, FOXP1 / RFU, CARD8 / Fold change vs veh, CARD8 / RFU, STRN3 / Fold change vs veh, STRN3 / RFU, ADK / Fold change vs veh, ADK / RFU, RASSF2 / Fold change vs veh, RASSF2 / RFU, WIPF1 / Fold change vs veh, WIPF1 / RFU, LARP1B / Fold change vs veh, LARP1B / RFU, RASA1 / Fold change vs veh, RASA1 / RFU, RB1 / Fold change vs veh, RB1 / RFU, PPFIA1 / Fold change vs veh, PPFIA1 / RFU, MAT2A / Fold change vs veh, MAT2A / RFU, CCT5 / Fold change vs veh, CCT5 / RFU, WDR92 / Fold change vs veh, WDR92 / RFU, CUX1 / Fold change vs veh, CUX1 / RFU, TTC7A / Fold change vs veh, TTC7A / RFU, TMEM135 / Fold change vs veh, TMEM135 / RFU, DEPTOR / Fold change vs veh, DEPTOR / RFU, CPM / Fold change vs veh, CPM / RFU, DNAJB6 / Fold change vs veh, DNAJB6 / RFU, CACNA2D3 / Fold change vs veh, CACNA2D3 / RFU, DTX4 / Fold change vs veh, DTX4 / RFU, TFCP2 / Fold change vs veh, TFCP2 / RFU, GMCL1 /// GMCL1P1 / Fold change vs veh, GMCL1 /// GMCL1P1 / RFU, AEBP2 / Fold change vs veh, AEBP2 / RFU, SNHG1 /// SNORD22 /// SNORD25 /// SNORD26 /// SNORD27 /// SNORD28 /// SNORD29 /// SNORD31 / Fold change vs veh, SNHG1 /// SNORD22 /// SNORD25 /// SNORD26 /// SNORD27 /// SNORD28 /// SNORD29 /// SNORD31 / Fold change (Aza/veh), C12orf56 (ProbeSet 11735607_a_at) / Fold change (ACY-1035/veh), C12orf56 (ProbeSet 11735607_a_at) / Fold change (Aza/veh), FGFR1OP (ProbeSet 11751329_s_at) / Fold change (ACY-1035/veh), FGFR1OP (ProbeSet 11751329_s_at) / Fold change (Aza/veh), VPS36 (ProbeSet 11739960_a_at) / Fold change (ACY-1035/veh), VPS36 (ProbeSet 11739960_a_at) / RFU SYPL1 (11715823_x_at) / Fold change /veh SYPL1 (11715823_x_at) / RFU IGFBP7 (11715501_s_at) / Fold change /veh IGFBP7 (11715501_s_at) / RFU REEP3 (11722064_at) / Fold change /veh REEP3 (11722064_at) / RFU IGLL1 (11728026_x_at) / Fold change /veh IGLL1 (11728026_x_at): dose or concentration left out as unconfirmed
Details: MV-4-11 cells, 48 hours

Q: Nc1ncn([C@@H]2O[C@H](CO)[C@@H](O)[C@H]2O)c(=O)n1 [azacitidine] was tested. Which “Fold change /veh FAM212B (11763350_a_at)” value did it give?
A: 1.13

Reference: paper PMC5218480 (PLoS ONE, 2017)
